Values after ≈ are worked out from the molar mass of the structure shown. Bridge positions count the residues as written; N and C are the ends. Square brackets hold non-standard residues; d marks the D form. Peptide text beside a SMILES is read from it. * marks the point of attachment. Ileψ(thiazoline)Cys = CC[C@H](C)[C@H](N)C1=N[C@H](C(=O)*)CS1; dOrn = NCCC[C@@H](N)C(=O)O

One assay relates to Escherichia coli EC14. Type of assay: cell-based. The following applies: E. coli EC14; agar dilution. As to the method:
(§1) The MIC's in Tables VII and VIII were determined by standard agar-dilution assays.

Assay [1] deals with Haemophilus influenzae 76. Type of assay: cell-based. The following applies: H. influenzae 76, ampicillin-resistant strain; agar dilution. The procedure:
as §1

Assay [2] deals with Haemophilus influenzae C.L. Type of assay: cell-based. The conditions noted are these: H. influenzae C.L., ampicillin-sensitive strain; agar dilution. The procedure:
as §1
On the technique in general: In agar dilution the substance is mixed into plates at graded concentrations.

For assay [3], the system named is Klebsiella pneumoniae X26. Type of assay: cell-based. The conditions noted are these: K. pneumoniae X26; agar dilution. The procedure: as §1
Assay [4] deals with Pseudomonas aeruginosa X239. It is filed as cell-based. The conditions noted are these: P. aeruginosa X239; agar dilution. As to the method:
as §1

Assay [5] deals with Staphylococcus aureus V41. It is filed as cell-based. The following applies: S. aureus V41, penicillin-resistant strain; agar dilution. The procedure:
as §1

Assay [6] has as its system Staphylococcus aureus X1.1. It is filed as cell-based. The conditions noted are these: S. aureus X1.1; agar dilution. The procedure:
as §1

Assay [7] has as its system Staphylococcus aureus X400. Type of assay: cell-based. The following applies: S. aureus X400, methicillin-resistant strain; agar dilution. As to the method: as §1
Assay [8] deals with Staphylococcus epidermidis 222. It is filed as cell-based. The following applies: S. epidermidis 222; agar dilution. The procedure: as §1
The subject of assay [9] is Staphylococcus epidermidis 270. Type of assay: cell-based. The following applies: S. epidermidis 270; agar dilution. As to the method:
as §1

The subject of assay [10] is Streptococcus Group D 2041. Type of assay: cell-based. The conditions noted are these: agar dilution. As to the method:
as §1

Assay [11] deals with Streptococcus Group D X66. It is filed as cell-based. The following applies: agar dilution. The procedure: as §1
Assay [12] relates to Streptococcus pneumoniae Park I. It is filed as cell-based. The following applies: S. pneumoniae Park I; agar dilution. The procedure: as §1
Assay [13] has as its system Streptococcus pyogenes C203. Type of assay: cell-based. The following applies: S. pyogenes C203; agar dilution. The procedure:
as §1

The next assay concerns Staphylococcus aureus. In words: protection of mice experimentally infected with test organism (Table X). Type of assay: in vivo. The conditions noted are these: mice, subcutaneous, 1 and 4 hours postinfection. The procedure:
(§2) The A82846 antibiotics have also shown in vivo antimicrobial activity against experimentally-induced infections in laboratory animals. When two doses of test compound were administered to mice experimentally infected with the test organism, the activity observed was measured as an ED50 value [effective dose in mg/kg to protect 50% of the test animals: see Warren Wick, et al., J. Bacteriol. 81, 233-235 (1961)].
(§3) ^a mg/kg × 2; doses administered subcutaneously to mice 1 and 4

Another assay has as its system Streptococcus pneumoniae. The description is as above. It is filed as in vivo. The conditions noted are these: mice, subcutaneous, 1 and 4 hours postinfection. The procedure: as §2, §3
The next assay concerns Streptococcus pyogenes. Described as above. Type of assay: in vivo. The conditions noted are these: mice, subcutaneous, 1 and 4 hours postinfection. The procedure:
as §2, §3

In assay [14] the test system is Cultures A82846 and A82846.1. In words: resistance to antibiotics, antibiotic sensitivity discs on seeded agar plates.
The test system of the next assay is A82846. In words: resistance to antibiotics, sensitivity discs (Table III). It is filed as cell-based, Nocardia orientalis. The following applies: culture A82846.
Another assay has as its system N. orientalis. The assay is described as above. It is filed as cell-based, Nocardia orientalis.
A further assay has as its system N. aerocolonigenes. Described as above. It is filed as cell-based, Nocardia aerocolonigenes.

In the case of `CN[C@@H](CC(C)C)C(=O)N[C@H]1C(=O)N[C@H](CC(N)=O)C(=O)N[C@H]2C(=O)N[C@H]3C(=O)N[C@@H](C(=O)NC(C(=O)O)c4cc(O)cc(O)c4-c4cc3ccc4O)[C@@H](O[C@H]3C[C@](C)(N)[C@H](O)[C@@H](C)O3)c3ccc(cc3)Oc3cc2cc(c3O[C@H]2O[C@@H](CO)[C@@H](O)[C@H](O)[C@@H]2O[C@H]2C[C@](C)(N)[C@H](O)[C@@H](C)O2)Oc2ccc(cc2)[C@@H]1O` (stereo partly drawn) [A82846C], the MIC result against Escherichia coli EC14 is “-- (Not active at 128 mcg/mL, the highest level tested)”; in assay [1] it was “-- (Not active at 128 mcg/mL, the highest level tested)”; in assay [2] it was “-- (Not active at 128 mcg/mL, the highest level tested)”; in assay [3], “-- (Not active at 128 mcg/mL, the highest level tested)”; in assay [4] it was “-- (Not active at 128 mcg/mL, the highest level tested)”; in assay [5], 1 µg/mL (≈ 0.656 µM). Moreover, the MIC is 1 µg/mL (≈ 0.656 µM) in assay [6]; 1 µg/mL (≈ 0.656 µM) in assay [7]; 1 µg/mL (≈ 0.656 µM) in [8]; 1 µg/mL (≈ 0.656 µM) in assay [9]; 4 µg/mL (≈ 2.63 µM) in assay [10]; 2 µg/mL (≈ 1.31 µM) in [11]. Further, the MIC in [12] turned out to be 2 µg/mL (≈ 1.31 µM); in assay [13] it was 1 µg/mL (≈ 0.656 µM). For the same compound, the “ED50 Value” in the assay on Staphylococcus aureus came out at 2.18 mg/kg × 2; in the assay with Streptococcus pneumoniae, 5.87 mg/kg × 2; in the assay with Streptococcus pyogenes it was 2.71 mg/kg × 2.
Turning to `CC[C@H](C)[C@H](N)C1=N[C@H](C(=O)N[C@@H](CC(C)C)C(=O)N[C@H](CCC(=O)O)C(=O)N[C@H](C(=O)N[C@H]2CCCCNC(=O)[C@H](CC(N)=O)NC(=O)[C@@H](CC(=O)O)NC(=O)[C@H](Cc3cnc[nH]3)NC(=O)[C@@H](Cc3ccccc3)NC(=O)[C@H]([C@@H](C)CC)NC(=O)[C@@H](CCCN)NC2=O)[C@@H](C)CC)CS1` [bacitracin] ({Ileψ(thiazoline)Cys}-L[dE]IK[dOrn]I[dF]H[dD]N; lactam 4-C), the antibiotic resistance result in assay [14] (disc 10 units) is “resistant”.
For `CC(=O)OCC1=C(C(=O)O)N2C(=O)[C@@H](NC(=O)Cc3cccs3)[C@H]2SC1` [cephalothin], the antibiotic resistance entry in [14] (disc 30 μg) is recorded as “resistant”.
Regarding `O=C(N[C@H](CO)[C@H](O)c1ccc([N+](=O)[O-])cc1)C(Cl)Cl` [chloramphenicol], the antibiotic resistance entry in assay [14] (disc 30 μg) is “sensitive”.
Turning to `CC[C@H]1OC(=O)[C@H](C)[C@@H](O[C@H]2C[C@@](C)(OC)[C@@H](O)[C@H](C)O2)[C@H](C)[C@@H](O[C@@H]2O[C@H](C)C[C@H](N(C)C)[C@H]2O)[C@](C)(O)C[C@@H](C)C(=O)[C@H](C)[C@@H](O)[C@]1(C)O` [erythromycin], the antibiotic resistance entry in [14] (disc 15 μg) is reported as “resistant”.
`CCC[C@@H]1C[C@@H](C(=O)N[C@@H]([C@H]2O[C@H](SC)[C@H](O)[C@@H](O)[C@H]2O)[C@@H](C)O)N(C)C1` [lincomycin]: the antibiotic resistance entry in assay [14] (disc 2 μg) was “resistant”.
Regarding `C1N2CN3CN1CN(C2)C3` [mandelamine], in [14] (disc 3 μg), the antibiotic resistance result was “sensitive”.
Turning to `CCn1cc(C(=O)O)c(=O)c2ccc(C)nc21` [nalidixic acid], the antibiotic resistance result in [14] (disc 30 μg) is listed as “resistant”.
For `CO[C@@H]1[C@@H](OC(N)=O)[C@@H](O)[C@H](Oc2ccc3c(O)c(NC(=O)c4ccc(O)c(CC=C(C)C)c4)c(=O)oc3c2C)OC1(C)C` [novobiocin], in assay [14] (disc 30 μg), the antibiotic resistance result is “sensitive”.
In the case of `CO[C@H]1C[C@H](O[C@H]2[C@H](C)[C@@H](O[C@@H]3O[C@H](C)C[C@H](N(C)C)[C@H]3O)[C@@H](C)C[C@@]3(CO3)C(=O)[C@H](C)[C@@H](O)[C@@H](C)[C@@H](C)OC(=O)[C@@H]2C)O[C@@H](C)[C@@H]1O` [oleandomycin], the antibiotic resistance entry in [14] (disc 15 μg) is “resistant”.
Regarding `CC1(C)S[C@@H]2[C@H](NC(=O)Cc3ccccc3)C(=O)N2[C@H]1C(=O)O` [penicillin G], the antibiotic resistance entry in assay [14] (disc 10 units) was “resistant”.
As for `CO[C@H]1/C=C/O[C@@]2(C)Oc3c(C)c(O)c4c(O)c(c(/C=N/N5CCN(C)CC5)c(O)c4c3C2=O)NC(=O)/C(C)=C\C=C\[C@H](C)[C@H](O)[C@@H](C)[C@@H](O)[C@@H](C)[C@H](OC(C)=O)[C@@H]1C` [rifampin], in assay [14] (disc 5 μg), the antibiotic resistance result was “sensitive”.
As for `[H]/N=C(/N)N[C@H]1[C@H](O)[C@@H](O)[C@H](O[C@@H]2O[C@@H](C)[C@](O)(C=O)[C@H]2O[C@@H]2O[C@@H](CO)[C@H](O)[C@@H](O)[C@@H]2NC)[C@@H](N/C(N)=N\[H])[C@@H]1O` [streptomycin], the antibiotic resistance entry in [14] (disc 10 μg) was “resistant”.
`Nc1ccc(S(=O)(=O)Nc2ncccn2)cc1` [sulfadiazine]: in [14] (disc 300 μg), the antibiotic resistance entry is listed as “resistant”.
For the compound `CN(C)C1C(=O)C(C(N)=O)=C(O)C2(O)C(=O)C3=C(O)c4c(O)cccc4C(C)(O)C3CC12` (stereo not drawn) [tetracycline], in [14] (disc 30 μg), the antibiotic resistance result is reported as “sensitive”.
On to `NC[C@H]1O[C@H](O[C@H]2[C@H](O)[C@@H](O[C@H]3O[C@H](CO)[C@@H](O)[C@H](N)[C@H]3O)[C@H](N)C[C@@H]2N)[C@H](N)C[C@@H]1O` [tobramycin], for which the antibiotic resistance result in assay [14] (disc 10 μg) is reported as “resistant”.
Turning to `COc1cc(Cc2cnc(N)nc2N)cc(OC)c1OC` [trimethoprim], in assay [14] (disc 5 μg), the antibiotic resistance entry is “resistant”.
As to gentamicin, the “Resistance to” value in the assay with A82846 (10 μg) is recorded as “+”; in the assay with N. orientalis (10 μg) it was “-”; in the assay with N. aerocolonigenes (10 μg) it was “-”. In addition, the antibiotic resistance entry in assay [14] (disc 10 μg) is reported as “resistant”.
Turning to neomycin, the “Resistance to” value in the assay with A82846 (30 μg), in the assay with N. orientalis (30 μg) and in the assay with N. aerocolonigenes (30 μg) was “-” each time. In addition, in assay [14] (disc 30 μg), the antibiotic resistance result is reported as “sensitive”.
Take polymixin B: the “Resistance to” value in the assay on A82846 (300 units), in the assay with N. orientalis (300 units) and in the assay with N. aerocolonigenes (300 units) was “+” throughout. In addition, in [14] (disc 300 units), the antibiotic resistance result is on record as “resistant”.
